As a reminder, the Ki is a dissociation constant, usually derived from enzyme kinetics or from competition with a known ligand. Higher therefore signals a looser hold on the target.

Counter-ions that a name gives are not always drawn.

In patent publication US6436962B1, “Arylhydantoin derivatives and uses thereof” (Merck & Co., Inc., priority 1999, dated 2002) one finds Ki data, which are given here for 23 compounds.

For this assay, the target named is T1, human alpha 1a adrenergic receptor (Homo sapiens, UniProt P35348).
T1 sequence (P35348 1-466): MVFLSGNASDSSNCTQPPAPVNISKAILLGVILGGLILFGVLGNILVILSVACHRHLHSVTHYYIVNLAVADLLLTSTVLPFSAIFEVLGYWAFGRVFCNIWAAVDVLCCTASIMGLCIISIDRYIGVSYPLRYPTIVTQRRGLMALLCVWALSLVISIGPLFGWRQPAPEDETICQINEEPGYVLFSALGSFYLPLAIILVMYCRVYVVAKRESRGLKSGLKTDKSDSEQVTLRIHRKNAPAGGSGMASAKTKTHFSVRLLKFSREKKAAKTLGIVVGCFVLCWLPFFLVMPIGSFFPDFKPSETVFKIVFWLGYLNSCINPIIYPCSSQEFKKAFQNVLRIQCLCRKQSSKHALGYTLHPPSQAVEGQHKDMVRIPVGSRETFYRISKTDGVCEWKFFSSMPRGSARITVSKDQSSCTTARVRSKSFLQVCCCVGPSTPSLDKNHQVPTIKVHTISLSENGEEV
The experiment in a line: Screening assay: alpha 1a adrenergic receptor binding ([125I]-HEAT competition). The settings on record: membranes from stably transfected human alpha 1a cell line (ATCC CRL 11140), 100 pM [125I]-HEAT. On the procedure:
Screening Assay: Alpha 1a Adrenergic Receptor Binding
These competition binding reactions (total volume=200 μl) contained 50 mM Tris-HCl pH. […] Reactions were incubated at room temperature for one hour with shaking. Reactions were filtered onto Whatman GF/C glass fiber filters with a Inotec 96 well cell harvester. Filters were washed three times with ice cold buffer and bound radioactivity was determined (Ki).
On to `Cc1ccc(C2(c3ccccc3)NC(=O)N(CCCN3CCC(C#N)(c4ccccc4)CC3)C2=O)cc1` (racemic) [Compound 11, (+/−)-3-{3-[4-phenyl4-cyanopiperidin-1-yl]propyl-}5-(4-methylphenyl)-5-phenyl-imidazolin-2,4-dione trifluoroacetate], for which the Ki is < 20 nM.

Consider `Cc1ccc(C2(c3ccccn3)NC(=O)N(CCCN3CCC(C#N)(c4ccccc4C)CC3)C2=O)cc1` (racemic) [Compound 13, (+/−)-3-{3-[4-(2-methylphenyl)-4-cyanopiperidin-1-yl]propyl}-5-(4-methylphenyl)-5-(2-pyridyl)-imidazolin-2,4-dione], for which the Ki was < 20 nM.

Take `Cc1ccc(C2(c3ccc(C)cc3)NC(=O)N(CCCN3CCC(c4ccccn4)CC3)C2=O)cc1` [Compound 3, 3-{3-[4-(2-Pyridyl)piperidin-1-yl]propyl}-5,5-bis(4-methylphenyl)-imidazolin-2,4-dione]: the Ki is < 20 nM.

As for `Cc1ccc(C2(c3ccc(C)cc3)NC(=O)N(CCCN3CCC4(CC3)C(=O)Cc3ccccc34)C2=O)cc1` [Compound 5, 3-{3-(2,3-dihydro-spiro[indeno-1,4′-piperidin]-2(3H)-on-1′-yl)propyl}-5,5-bis(4-methylphenyl)-imidazolin-2,4-dione], the Ki is < 20 nM.

For `CCCCCC1(c2ccc(C)cc2)NC(=O)N(CCCN2CCC(C#N)(c3ccccc3C)CC2)C1=O` (racemic) [Compound 16], the Ki is < 20 nM.

For `N#CC1(c2ccccc2)CCN(CCCN2C(=O)NC(c3ccc(Cl)cc3)(c3ccc(Cl)cc3)C2=O)CC1` [Compound 10, 3-{3-[4-phenyl-4-cyanopiperidin-1-yl]propyl}-5,5-bis(4-chlorophenyl)-imidazolin-2,4-dione hydrochloride], the inhibition constant (Ki) is < 20 nM.

As for `Cc1ccc(C2(c3ccc(C)cc3)NC(=O)N(CCCN3CCC4(CC3)OC(=O)N(C)c3ccccc34)C2=O)cc1` [Compound 9], the Ki was < 20 nM.

Turning to `Cc1ccccc1C1(C#N)CCN(CCCN2C(=O)NC(c3ccc(F)cc3)(c3ccc(F)cc3)C2=O)CC1` [Compound 12, 3-{3-[4-(2-methylphenyl)-4-cyanopiperidin-1-yl]propyl}-5,5-bis(4-fluorophenyl)-imidazolin-2,4-dione hydrochloride], the Ki is < 20 nM.

On to `Cc1ccc(C2(c3ccc(C)cc3)NC(=O)N(CCCN3CCC(c4ccc(F)cc4C#N)CC3)C2=O)cc1` [Compound 26], for which the Ki is < 20 nM.

Consider `Cc1ccc(C2(c3ccc(C)cc3)NC(=O)N(CCCN3CCC4(CC3)OC(=O)N(CC(F)(F)F)c3ccc(Cl)cc34)C2=O)cc1` [Compound 29, 3-{3-[1-(2,2,2-trifluoroethyl)-6-chloro-spiro[4H-3,1-benzoxazine-4,4′-piperidin]-2(1H)-on-1′-yl]propyl}-5,5-bis(4-methylphenyl)-imidazolin-2,4-dione], for which the inhibition constant Ki is < 20 nM.

Regarding `CCCCCC1(c2ccc(F)c(F)c2)NC(=O)N(CCCN2CCC(C#N)(c3ccccc3C)CC2)C1=O` (racemic) [Compound 17, (+/−)-3-{3-[4-(2-methylphenyl)-4-cyanopiperidin-1-yl]propyl}-5-pentyl-5-(3,4-difluoro-phenyl)-imdazolin-2,4-dione hydrochloride], the inhibition constant Ki was < 20 nM.

Regarding `Cc1ccc(C2(c3ccc(C)cc3)NC(=O)N(CCCN3CCC4(C=Cc5ccccc54)CC3)C2=O)cc1` [Compound 4, 3-{3-(spiro[1H-indeno-1,4′-piperidin]-1′-yl)propyl}-5,5-bis(4-methylphenyl)-imidazolin-2,4-dione], the Ki is < 20 nM.

Regarding `Cc1ccc(C2(c3ccc(C)cc3)NC(=O)N(CCCCN3CCC4(C=Cc5ccccc54)CC3)C2=O)cc1` [Compound 28, 3-{4-(spiro[indeno-1,4′-piperidin]-1′-yl)butyl}-5,5-bis(4-methylphenyl)-imidazolin-2,4-dione], the Ki was < 20 nM.

In the case of `Cc1ccc(C2(c3ccc(C)cc3)C(=O)N(CCCN3CCC(C#N)(c4ccccc4C)CC3)C(=O)N2C)cc1` [Compound 36, 1-Methyl-3-{3-[4-(2-methylphenyl)-4-cyanopiperidin-1-yl]propyl}-bis-5,5-(4-methylphenyl)-imidazolin-2,4-dione], the Ki is < 20 nM.

Regarding `Cc1ccc(C2(c3ccc(C)cc3)NC(=O)N(CCCN3CCC4(CC3)OC(=O)N(C)c3ccc(Cl)cc34)C2=O)cc1` [Compound 8, 3-{3-(1-methyl-6-chloro-spiro[4H-3,1-benzoxazine-4,4′-piperidin]-2(1H)-on-1′yl)propyl}5,5-bis(4-methylphenyl)-imidazolin-2,4-dione], the Ki was < 20 nM.

Regarding `Cc1ccc(C2(c3ccc(C)cc3)NC(=O)N(CCCN3CCC4(CC3)OC(=O)Nc3ccccc34)C2=O)cc1` [Compound 6, 3-{3-(spiro[4H-3,1-benzoxazine-4,4′-piperidin]-2(1H)-on-1′-yl)propyl}-5,5-bis(4-methylphenyl)-imidazolin-2,4-dione], the Ki is < 20 nM.

Turning to `Cc1ccc(C2(C(C)C)NC(=O)N(CCCN3CCC(C#N)(c4ccccc4C)CC3)C2=O)cc1` (racemic) [Compound 31, (+/−)-3-{3-[4-(2-methylphenyl)4-cyanopiperidin-1-yl]propyl}-5-isopropyl-5-(4-methylphenyl)-imidazolin-2,4-dione hydrochloride], the Ki is < 20 nM.

Consider `Cc1ccc(C2(c3ccc(C)cc3)NC(=O)N(CCCN3CCN(c4ccccc4C(N)=O)CC3)C2=O)cc1` [Compound 25, 3-{3-[4-(2-aminocarbonylphenyl)-piperazin-1-yl]propyl}-5,5-bis(4-methylphenyl)-imidazolin-2,4-dione dihydrochloride], for which the inhibitory constant (Ki) was < 20 nM.

Turning to `CN1C(=O)OC2(CCN(CCCN3C(=O)NC(c4ccc(Cl)cc4)(c4ccc(Cl)cc4)C3=O)CC2)c2cc(Cl)ccc21` [Compound 14, 3-{3-(1-methyl-6-chloro-spiro[4H-3,1-benzoxazine-4,4′-piperidin]-2(1H)-on-1′-yl)propyl}1-5,5-bis(4-chlorophenyl)-imidazolin-2,4-dione], the Ki was < 20 nM.

For the compound `Cc1ccc(C2(c3ccc(C)cc3)NC(=O)N(CCCN3CCC4(CC3)OC(=O)Nc3ccc(F)cc34)C2=O)cc1` [Compound 23, 3-{3-(6-fluoro-spiro[4H-3,1-benzoxazine4,4′-piperidin]-2(1H)-on-1′-yl)propyl}bis(4-methylphenyl)-imidazolin-2,4-dione], the Ki is < 20 nM.

`Cc1ccc(C2(c3ccc(C)cc3)NC(=O)N(CCCN3CCC4(CC3)C(=O)Nc3ccccc34)C2=O)cc1` [Compound 21, 3-{3-(spiro[3H-indole-3,4′-piperidin]-2(1H)-on-1′-yl)propyl}-5,5-bis(4-methylphenyl)-imidazolin-2,4-dione hydrochloride]: the Ki is < 20 nM.

Regarding `Cc1ccc(C2(c3ccc(C)cc3)NC(=O)N(CCCN3CCC(C#N)(c4ccccc4)CC3)C2=O)cc1` [Compound 1, 3-[3-(4-Phenyl-4-cyanopiperidin-1-yl)propyl]-5,5-bis(4-methylphenyl)-imidazolin-2,4-dione], the Ki was < 20 nM.

As for `Cc1ccc(C2(c3ccc(C)cc3)NC(=O)N(CCCN3CCC4(CC3)OC(=O)Nc3ccc(Cl)cc34)C2=O)cc1` [Compound 7, 3-{3-(6-chloro-spiro[4H-3,1-benzoxazine-4,4′-piperidin]-2(1H)-on-1′-yl)propyl}-5,5-bis(4-methylphenyl)-imidazolin-2,4-dione], the Ki is < 20 nM.
